Experimental data: ChEMBL document CHEMBL1201862, “PubChem BioAssay data set” (2004)
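Where inhibition never reached the appropriate level, the endpoint shown equals the highest concentration tested. Otherwise, values were interpolated linearly from a five-concentration, 48-hour dose response in 96-well plates. The concentration for 50% growth inhibition is given as GI50.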 The source made the active and inactive calls. Cut-off read from the data, not from the text of the source: active = GI50 up to about 1.1 µM and inactive = higher. Peptide text beside a SMILES is read from it. * marks the point of attachment. Boc = CC(C)(C)OC(=O)*

Assays:
Assay in all cases: inhibition of tumour cell growth, NCI panel, 48 h
[1] = tested on: 786-0
[2] = tested on: BT-549
[3] = tested on: CCRF-CEM
[4] = tested on: DU-145
[5] = tested on: HCT-15
[6] = tested on: IGROV-1
[7] = tested on: MCF7
[8] = tested on: MDA-MB-231
[9] = tested on: Malme-3M
[10] = tested on: OVCAR-3
[11] = tested on: SF-268
[12] = tested on: SF-295
[13] = tested on: SK-MEL-28
[14] = tested on: SK-MEL-5
[15] = tested on: SN12C
[16] = tested on: SNB-19
[17] = tested on: T47D
[18] = tested on: UACC-257
[19] = tested on: HCC 2998

Measured: GI50

CC1CCCc2c(C#N)c(N)nc(-c3ccc(Cl)cc3)c21 (configuration not stated)
inactive: [1] 15.1 µM | [2] 17.9 µM | [3] 22.8 µM | [4] 33.7 µM | [6] 14.4 µM | [7] 19.6 µM | [8] 22.1 µM | [9] 18.7 µM | [10] 12.6 µM | [11] 31.1 µM | [12] 18.3 µM | [13] 27.6 µM | [14] 9.38 µM | [15] 20.3 µM | [16] 39.4 µM | [17] 5.96 µM | [18] 25.4 µM
11.7 µM: [5]

Cn1c2ccccc2c(=O)c2cccc(C(=O)NC(CCCNC(=N)N)C(=O)O)c21 (configuration not stated)
> 100 µM: [5]
inactive: [1] > 100 µM | [2] > 100 µM | [4] > 100 µM | [19] > 100 µM | [6] 30.1 µM | [7] > 100 µM | [8] > 100 µM | [9] > 100 µM | [10] > 100 µM | [11] > 100 µM | [12] > 100 µM | [13] > 100 µM | [14] > 100 µM | [15] > 100 µM | [16] > 100 µM | [17] > 100 µM | [18] > 100 µM

Cc1[nH]c(-c2ccccc2)c(O)c1C(=O)OC12CC3CC(CC(C3)C1)C2
11.9 µM: [5]
inactive: [1] 14 µM | [2] 17.1 µM | [3] 39 µM | [4] 15.6 µM | [6] 14.1 µM | [7] 14.1 µM | [8] 18.5 µM | [9] 14.1 µM | [10] 14.6 µM | [11] 13.9 µM | [12] 2.93 µM | [13] 14.7 µM | [14] 14.6 µM | [15] 16.4 µM | [16] 15 µM | [17] 15.8 µM | [18] 16.5 µM

Cc1cccc(N2C(=O)C3ON(C(C(N)=O)c4ccccc4)C(c4c5ccccc5c(Cl)c5ccccc45)C3C2=O)c1C (configuration not stated)
inactive: [1] 9.62 µM | [2] 9.98 µM | [3] 2.55 µM | [4] 10.4 µM | [6] 11.6 µM | [7] 7.64 µM | [8] 9.42 µM | [9] 11.4 µM | [10] 8.43 µM | [11] 9.59 µM | [12] 9.66 µM | [13] 13 µM | [14] 7.03 µM | [15] 8.07 µM | [16] 8.85 µM | [17] 9.57 µM | [18] 6.87 µM
7.38 µM: [5]

CCOCC(NC(=O)C(CC(C)C)NC(=O)OC(C)(C)C)C(N)=O (stereo not drawn) (Boc-Leu-Ser(Et)-NH2; configuration not given here)
> 100 µM: [5]
inactive: [1] > 100 µM | [2] > 100 µM | [3] 41 µM | [4] > 100 µM | [6] > 100 µM | [7] > 100 µM | [8] > 100 µM | [9] > 100 µM | [10] > 100 µM | [11] > 100 µM | [12] > 100 µM | [13] 1.31 µM | [14] > 100 µM | [15] > 100 µM | [16] > 100 µM | [17] > 100 µM | [18] > 100 µM

COc1ccc(/C=C2\CCS(=O)(=O)c3ccccc3C2=O)cc1OC
11.9 µM: [5]
inactive: [1] 28.1 µM | [2] 16.6 µM | [3] 28.9 µM | [4] 23.6 µM | [19] 14.9 µM | [6] 7.91 µM | [7] 12.2 µM | [8] 30.8 µM | [10] 22.7 µM | [11] 29.3 µM | [12] 43.6 µM | [13] 53.1 µM | [15] 28.2 µM | [16] 42.8 µM | [17] 32.3 µM | [18] 35.5 µM

N#Cc1cc2c(cc1Cl)Sc1nccn1S2(=O)=O
inactive: [1] 14.8 µM | [2] 3.32 µM | [4] 2.33 µM | [6] 6.38 µM | [7] 3.8 µM | [8] 3.59 µM | [9] 6.79 µM | [11] 3.33 µM | [12] 4.31 µM | [13] 2.32 µM | [14] 9.93 µM | [15] 7.57 µM | [16] 8.2 µM | [17] 1.99 µM | [18] 2.21 µM
active: [3] 0.506 µM | [10] 0.668 µM
1.25 µM: [5]

CN(C)C(=O)Oc1ccc(-c2cn3cc(NC(=O)c4ccccc4)ccc3n2)cc1
> 100 µM: [5]
inactive: [1] > 100 µM | [2] 80.4 µM | [3] 99.5 µM | [4] > 100 µM | [19] 52 µM | [6] 70.8 µM | [7] 31.7 µM | [8] > 100 µM | [10] 53.7 µM | [11] 80.4 µM | [12] > 100 µM | [13] > 100 µM | [14] 21.4 µM | [15] > 100 µM | [16] 50.8 µM | [17] 21.6 µM | [18] 53.8 µM

CC(=O)c1ccc(Nc2c3c(nc4ccccc24)CCCC3)cc1
13.7 µM: [5]
inactive: [1] 25.7 µM | [2] 9.79 µM | [3] 15.9 µM | [4] 20 µM | [19] 42.1 µM | [6] 3.79 µM | [7] 18.7 µM | [8] 19.6 µM | [10] 11.5 µM | [11] 40.2 µM | [12] 11.2 µM | [13] 50.7 µM | [14] 14.9 µM | [15] 22.9 µM | [16] 20.2 µM | [17] 10.1 µM | [18] 24.5 µM

C=C(CO)[C@H]1CC/C(C)=C/CC/C(C)=C/C/C=C(\C)[C@H](O)C1
inactive: [1] 17.3 µM | [2] 23.1 µM | [3] > 100 µM | [4] 49.3 µM | [19] 15.2 µM | [6] 17.8 µM | [7] 26 µM | [8] 21.6 µM | [10] 33.7 µM | [11] 22.2 µM | [12] 34.8 µM | [13] 16 µM | [14] 18.9 µM | [15] 33.3 µM | [16] 47.4 µM | [17] 48 µM | [18] 19.7 µM
50 µM: [5]

O=C1CC(n2cccc2)c2cc(Br)sc21 (configuration not stated)
inactive: [1] 42 µM | [2] > 100 µM | [3] 18.7 µM | [4] > 100 µM | [6] > 100 µM | [7] 69.5 µM | [8] > 100 µM | [9] > 100 µM | [10] > 100 µM | [11] > 100 µM | [12] > 100 µM | [13] > 100 µM | [14] > 100 µM | [15] 43.9 µM | [16] > 100 µM | [17] 48.3 µM | [18] > 100 µM
> 100 µM: [5]
